Results taken from EP0192317A1, “Homocarnosine or acylhomocarnosine salts” (HAMARI YAKUHIN KOGYO KABUSHIKI KAISHA also known as HAMARI …, priority 1985, dated 1986).

What was measured:
wound = assay: Wound healing-promoting activity (tension required for separating the back skin wound); format: in vivo, Male rats; conditions: for Tension: 10 g in 20 ml of peanut oil, 0.05 ml per dose once daily for 10 consecutive days, tension required for separating the wound
Procedure: 2. Wound healing-promoting activity (Method)
Male rats weighing about 180 g-were used in groups of 9 animals. The hair on the back of each rat was clipped with an electric clipper and under ether anesthesia, a wound (20 mm long) was made with a chisel having a 20 mm edge in two positions of the cropped back. A suspension of each test compound (10 g) in 20 ml of peanut oil was applied to the wound in a volume of 0.05 ml per dose once daily for 10 consecutive days. After 10 days, the animal was bled to death by decapitation and the skin of the back was peeled until the wound was separated. The tension (grams) required for separating the wound was measured as an indicator of drug efficacy.

[1] = tested on: Pyrolic ligation-induced ulcer; assay: Pyrolic ligation-induced ulcer (Shay method); format: in vivo, Male Wistar strains rats; conditions: for Inhibition (%): 300 mg/kg intraduodenally immediately after ligation, ulcer in the fore-stomach 13 hours after administration
Procedure: (b) Pyrolic ligation-induced ulcer
Male Wistar strains rats weighing about 300 g were deprived of food for 20 hours, with provision against fecal feeding, and used in groups of 8 animals. The pyrolus of each animal was ligated under ether anesthesia according to the method described by Shay et al. [H.G. Shay, S.A. Komarow, S.S. Felds, D. Meranze, M. Gruenstein, and H. Siplet, Gastroenterology, 5, 43 (1945)], and 300 mg/kg of each test compound was immediately administered intraduodenally. The incision was sutured and 13 hours after drug administration the rat was sacrified by cervical dislocation. The stomach was excised, slightly inflated by an injection of 1% formalin solution, immersed in the same solution for 15 minutes to fix the gastric wall, and then opened along the greater curvature. The ulcer in the fore-stomach was measured under a dissecting microscope .to calculate the ulcer index and the efficacy of the drug was expressed in terms of percent ulcer index.

[2] = tested on: Water-immersion stress ulcer; assay: Water-immersion stress ulcer; format: in vivo, Male JCI-SD strain rats; conditions: for Ulcer Index (mm): 400 mg/kg orally 30 minutes before 7 hours immersion in 23°C water, sum of the lengths of the lesions in the body of the stomach; for Inhibition (%): 400 mg/kg orally, inhibition of water-immersion stress ulcer versus No drug
Procedure: After a fasting period of 24 hours, 400 mg/kg of each test compound was orally administered to each animal, and after 30 minutes, the animal was immobilized in a stress cage and was immersed in 23°C water down to the level of the thorax for 7 hours. After this stress loading, the rats was exsanguinated by decapitation and the stomach was excised and fixed in 1% formalin for 15 minutes. Then, an incision was made from the pyrolus along the greater curvature and the lengths of the lesions formed in the body of the stomach were measured using a dissecting microscope (with a scale graduated in 1/100 cm). The sum of the lengths was used as the ulcer index.

Wistar strain rats = assay: Acute toxicity study; format: in vivo; conditions: orally 5 g/kg, observed for 7 days, rats of either sex
Description: Wistar strain rats of either sex weighing 150 to 200 g were used in groups of 7 animals.

Compound	Tension (wound) [g]	Inhibition (%) [1] [%]	Ulcer Index (mm) [2] [mm]	Inhibition (%) [2] [%]	wound healing-promoting effect (in words) (wound; summary of Table III)	antiulcer potency among the compounds tested (in words) ([1]; summary of Tables I and II)	death (Wistar strain rats)
L-homocarnosine aluminum salt [Homocarnosine Al(OH)2]	220.28	11.2	7.10	30.6	–	–	–
(N-acetyl-L-homocarnosine)2 zinc salt [(N-Acetyl-L-Homocarnosine)2 Zn]	–	–	8.32	18.7	–	–	–
Carnosine Zn [reference compound]	–	39.2	4.61	54.9	–	–	–
Basic aluminum sucrose sulfate [reference compound]	–	4.7	8.54	16.6	–	–	–
CN/C(=N/CCSCc1nc[nH]c1C)NC#N [Cimetidine, reference compound]	–	–	4.02	60.7	–	–	–
L-homocarnosine zinc salt [Homocarnosine Zn]	249.36	46.2	3.85	62.4	particularly excellent	the most potent	–
L-homocarnosine aluminum salt [(Homocarnosine)3 Al]	–	–	8.24	19.5	–	–	–
N-acetyl-L-homocarnosine aluminum salt [(N-Acetyl-L-Homocarnosine)2 Al]	–	–	8.46	17.3	–	–	–
NCCCC(=O)N[C@@H](Cc1cnc[nH]1)C(=O)O [Homocarnosine, L-homocarnosine]	218.78	6.2	8.81	13.9	–	–	No death
L-homocarnosine aluminum salt [(Homocarnosine)2 AlOH]	–	–	7.76	24.2	–	–	–
CC(=O)NCCCC(=O)N[C@@H](Cc1cnc[nH]1)C(=O)O [N-Acetyl-L-Homocarnosine, N-acetyl-L-homocarnosine, reference compound]	207.45	2.4	9.95	6.7	–	–	No death
(L-homocarnosine)2 zinc salt [(Homocarnosine)2 Zn]	–	–	6.34	38.0	–	–	–
N-acetyl-L-homocarnosine zinc salt [N-Acetyl-L-Homocarnosine Zn]	233.64	22.1	7.06	31.0	–	–	–
N-acetyl-L-homocarnosine aluminum salt [N-Acetyl-L-Homocarnosine Al(OH)2]	203.57	38.7	5.40	47.2	–	–	–
